From US11420976B2 (priority 2020, dated 2022)
pEC50: −log10 of the molar value. Like-named read-outs stand apart in the source and are kept apart here.

Assays:
[1] = tested on: Human RSV-A (“Long” strain); test: RSV-A assay (CPE, ATPlite readout in Hep-2 cells); type: cell-based; conditions: human respiratory syncytial virus, 120 h, Hep-2 cells, MOI 0.1, 5-day incubation, ATPlite, read-out: Human RSV-A (“Long” strain) EC50
Text: Hep-2 cells, (originally derived from tumors grown in irradiated-cortisonised weanling rats that had been injected with epidermoid carcinoma tissue from a person's larynx, but later found to be indistinguishable from HeLa cells by PCR DNA analysis), were used for the culturing of genotype A, “Long” strain RSV. Flasks were inoculated with RSV and viral stocks were collected once cytopathic effect (CPE) was greater than 90%. Viral stocks in 25% sucrose media were snap frozen using liquid nitrogen to increase viral stability. Viral stock titers were quantified by tissue culture infectious dose 50% (TCID50) using 8,000 cells per well and 3-fold viral dilutions across a 96-well plate, cultured for 4 days. Viral stock titers were also quantified by a plaque forming unit assay, as described elsewhere.
Following extensive parameter testing, the final assay is run as follows: Hep-2 cells are seeded into the inner 60 wells of a 96-well plate at 8,000 cells per well in a volume of 50 μL using Growth Media (DMEM without phenol red, 1% L-Glut, 1% Penn/Strep, 1% nonessential amino acids, 10% heat-inactivated FBS). 2-fold serial dilutions of control and test compounds are added to the wells in duplicate in a total volume of 25 μL. Viral stock is then added to the wells at a multiplicity of infection (MOI) of 0.1 in a volume of 25 μL, bringing the total volume of each well to 100 μL. The MOI is calculated using the PFU/mL, or TCID50 if unavailable. Each 96-well plate has a control column of 6 wells with cells and virus but no compound (negative control, max CPE), a column with cells but no compound or virus (positive control, minimum CPE), and a column with no cells or virus or compound (background plate/reagent control). The control wells with cells but no virus are given an additional […], of growth media containing an equal quantity of sucrose as those wells receiving the viral stock in order to keep consistent in media and volume conditions. The outer wells of the plate are filled with 125 μL of moat media (DMEM, 1% Penn/Strep) to act as a thermal and evaporative moat around the test wells. Following a 5-day incubation period, the plates are read using ATPlite (50 uL added per well), which quantifies the amount of ATP (a measure of cell health) present in each well. Assay plates are read using the Envision luminometer. […] EC50 ranges are as follows: A<0.2 μM; B≥0.2 μM.

[2] = tested on: rHMPV-GFP (recombinant HMPV CAN97-83, MPV-GFP1); test: HMPV antiviral assay (eGFP fluorescence in Vero E6 cells); type: cell-based; conditions: Vero C1008, 120 h, read-out: rHMPV-GFP EC50
Description: HMPV antiviral activity was evaluated using a recombinant version of HMPV CAN97-83 engineered to contain the coding sequence for enhanced green fluorescence protein (eGFP) in the 3′ end of the virus genome (MPV-GFP1, ViraTree). Vero E6 cells (ATCC #CCL-7) were seeded at a density of 12,000 cells/100 μL/well into 96-well cell plates (VENDOR) one day prior to the assay. On the day of screening, the cell culture medium was aspirated from the wells and cells were washed twice with serum-free Eagle's Modified Essential Medium (EMEM, ATCC #) containing 1% penicillin-streptomycin (Invitrogen) (SF-EMEM). Cell washes were performed by dispensing 100 μL SF-EMEM per well and immediately aspirating the wash medium from the well. Following the second wash step, serum-free OptiMEM (Invitrogen, Cat No.) (SF-OptiMEM) containing 0.5 μg/mL TPCK-Trypsin (VENDOR) and 1% penicillin-streptomycin was added to the cells at 50 μL/well. Compounds were added into the 96-well plates using a JANUS automated liquid handling system (VENDOR). Compounds were initially diluted 1:50 into an intermediate 96-well plate containing SF-OptiMEM prior to transfer to the assay plate (25 μL/well). Each of the test compounds was tested in duplicate wells at final concentrations starting from 8 μM or 2 μM using ½ stepwise dilutions for a total of 8 points. Virus infection was performed by preparing a working stock of MPV-GFP1 at a multiplicity of infection (MOI) equal to 0.05/25 μL and aliquoting 25 μL of virus inoculum to the compound and positive control wells. SF-OptiMEM was added (25 μL/well) to the appropriate wells to serve as a virus-free negative control for the assay. The final DMSO concentration of all wells is 0.5%. Plates were incubated at 32° C., 5% CO2 for 5 days. After 5 days incubation, eGFP fluorescence intensity was measured at […] using a Spectramax i3X plate reader (VENDOR). Percent viral inhibition was calculated using the following equation: y=[[…]]×100 Where XQ is the fluorescence intensity measured in a well containing recombinant MPV-GFP1-infected, compound-treated cells and XP is the average fluorescence intensity measured in the wells containing untreated cells infected with recombinant virus. EC50 values were then calculated by non-linear regression using a four parameter curve logistic equation. The curve fit model employed was XLFit Dose Response One Site Model 200: y=(A+(B/(1+((x/C)^D)))) Where A is the minimum y value, B is the maximum y value, C is the log EC50 value, and D is the slope factor. The EC50 of each compound is listed in Table 2 and EC50 ranges are as follows: A<0.2 μM; B≥0.2 μM.

| Structure (SMILES) | pEC50 [1] | pEC50 [2] | pEC50 ([1]; in Homo sapiens) |
| --- | --- | --- | --- |
| N[C@@]1(C(F)(F)F)COc2c1cc([C@@](O)(CNC(=O)c1cc(OC3CC3)c3nn(C4CC4)cc3c1)C1CC1)nc2-c1ccc(F)c(Cl)c1 [Example 55d, N—((S)-2-((R)-3-amino-7-(3-chloro-4-fluorophenyl)-3-(trifluoromethyl)-2,3-dihydrofuro[2,3-c]pyridin-5-yl)-2-cyclopropyl-2-hydroxyethyl)-7-cyclopropoxy-2-cyclopropyl-2H-indazole-5-carboxamide] | > 6.70 | > 6.70 | – |
| C[C@](O)(CNC(=O)c1ccc(OC2CC2)c(OC2CC2)c1)c1cc2c(c(-c3ccc(F)c(Cl)c3)n1)OC[C@@]2(N)C(F)(F)F [Example 28, N—((S)-2-((R)-3-amino-7-(3-chloro-4-fluorophenyl)-3-(trifluoromethyl)-2,3-dihydrofuro[2,3-c]pyridin-5-yl)-2-hydroxypropyl)-3,4-dicyclopropoxybenzamide] | > 6.70 | > 6.70 | – |
| N[C@@]1(C(F)(F)F)COc2c1cc([C@@](O)(CNC(=O)c1cc(OC3CC3)c3ncccc3c1)C1CC1)nc2-c1ccc(F)cc1 [Example 11, N—((S)-2-((R)-3-amino-7-(4-fluorophenyl)-3-(trifluoromethyl)-2,3-dihydrofuro[2,3-c]pyridin-5-yl)-2-cyclopropyl-2-hydroxyethyl)-8-cyclopropoxyquinoline-6-carboxamide] | > 6.70 | < 6.70 | – |
| N[C@@]1(C(F)(F)F)COc2c1cc([C@@](O)(CNC(=O)c1ccc(OC3CC3)c(OC3CC3)c1)C1CC1)nc2-c1ccc(F)cc1 [Example 19, N—((S)-2-((R)-3-amino-7-(4-fluorophenyl)-3-(trifluoromethyl)-2,3-dihydrofuro[2,3-c]pyridin-5-yl)-2-cyclopropyl-2-hydroxyethyl)-3,4-dicyclopropoxybenzamide] | > 6.70 | > 6.70 | – |
| COc1cc(C(=O)NC[C@H](O)c2cc3c(c(-c4ccc(F)cc4)n2)OC[C@@]3(N)C(F)(F)F)ccc1OC1CC1 [Example 47] | < 6.70 | < 6.70 | – |
| COc1cc(C(=O)NC[C@](O)(c2cc3c(c(-c4ccc(F)c(F)c4)n2)OC[C@@]3(N)C(F)(F)F)C2CC2)ccc1OC1CC1 [Example 23, N—((S)-2-((R)-3-amino-7-(3,4-difluorophenyl)-3-(trifluoromethyl)-2,3-dihydrofuro[2,3-c]pyridin-5-yl)-2-cyclopropyl-2-hydroxyethyl)-4-cyclopropoxy-3-methoxybenzamide] | > 6.70 | > 6.70 | – |
| Cn1cc2cc(C(=O)NC[C@](O)(c3cc4c(c(-c5ccc(F)cc5)n3)OC[C@@]4(N)C(F)(F)F)C3CC3)cc(OC3CC3)c2n1 [Example 66, N—((S)-2-((R)-3-amino-7-(4-fluorophenyl)-3-(trifluoromethyl)-2,3-dihydrofuro[2,3-c]pyridin-5-yl)-2-cyclopropyl-2-hydroxyethyl)-7-cyclopropoxy-2-methyl-2H-indazole-5-carboxamide] | > 6.70 | > 6.70 | – |
| COc1cc(C(=O)NC[C@](O)(c2cc3c(c(-c4ccc(F)cc4)n2)OC[C@]3(N)C(F)(F)F)C(F)(F)F)ccc1OC1CC1 [Example 3, N—((S)-2-((S)-3-amino-7-(4-fluorophenyl)-3-(trifluoromethyl)-2,3-dihydrofuro[2,3-c]pyridin-5-yl)-3,3,3-trifluoro-2-hydroxypropyl)-4-cyclopropoxy-3-methoxybenzamide] | > 6.70 | < 6.70 | – |
| C[C@](O)(CNC(=O)c1ccc(OC2CC2)c(OC2CC2)c1)c1cc2c(c(-c3ccc(F)cc3)n1)OC[C@@]2(N)C(F)(F)F [Example 20, N—((S)-2-((R)-3-amino-7-(4-fluorophenyl)-3-(trifluoromethyl)-2,3-dihydrofuro[2,3-c]pyridin-5-yl)-2-hydroxypropyl)-3,4-dicyclopropoxybenzamide] | > 6.70 | > 6.70 | – |
| COc1cc(C(=O)NC[C@](O)(c2cc3c(c(-c4ccc(F)cc4)n2)OC[C@@]3(NC(=O)COC(C)=O)C(F)(F)F)C(F)(F)F)ccc1OC1CC1 [Example 13, 2-(((R)-5-((S)-3-(4-cyclopropoxy-3-methoxybenzamido)-1,1,1-trifluoro-2-hydroxypropan-2-yl)-7-(4-fluorophenyl)-3-(trifluoromethyl)-2,3-dihydrofuro[2,3-c]pyridin-3-yl)amino)-2-oxoethyl acetate] | > 6.70 | < 6.70 | – |
| N[C@@]1(C(F)(F)F)COc2c1cc([C@@](O)(CNC(=O)c1ccc(OC3CC3)c(OC3CC3)c1)C1CC1)nc2-c1ccc(F)c(Cl)c1 [Example 29] | – | < 6.70 | > 6.70 |
| COc1cc(C(=O)NC[C@](O)(c2cc3c(c(-c4ccc(F)cc4)n2)OC[C@@]3(N)C(F)(F)F)C2CC2)ccc1OC1CC1 [Example 9, N—((S)-2-((R)-3-amino-7-(4-fluorophenyl)-3-(trifluoromethyl)-2,3-dihydrofuro[2,3-c]pyridin-5-yl)-2-cyclopropyl-2-hydroxyethyl)-4-cyclopropoxy-3-methoxybenzamide] | > 6.70 | > 6.70 | – |
| COc1cc(C(=O)NC[C@](C)(O)c2cc3c(c(-c4ccc(F)cc4)n2)OC[C@@]3(N)C(F)(F)F)ccc1OC1CC1 [Example 7, N—((S)-2-((R)-3-amino-7-(4-fluorophenyl)-3-(trifluoromethyl)-2,3-dihydrofuro[2,3-c]pyridin-5-yl)-2-hydroxypropyl)-4-cyclopropoxy-3-methoxybenzamide] | > 6.70 | > 6.70 | – |
| COc1cc(C(=O)NC[C@@](O)(c2cc3c(c(-c4ccc(F)cc4)n2)OC[C@]3(N)C(F)(F)F)C(F)(F)F)ccc1OC1CC1 [Example 4, N—((R)-2-((S)-3-amino-7-(4-fluorophenyl)-3-(trifluoromethyl)-2,3-dihydrofuro[2,3-c]pyridin-5-yl)-3,3,3-trifluoro-2-hydroxypropyl)-4-cyclopropoxy-3-methoxybenzamide] | < 6.70 | < 6.70 | – |
| COc1cc(C(=O)NC[C@@](O)(CO)c2cc3c(c(-c4ccc(F)cc4)n2)OC[C@@]3(N)C(F)(F)F)ccc1OC1CC1 [Example 51, N—((S)-2-((R)-3-amino-7-(4-fluorophenyl)-3-(trifluoromethyl)-2,3-dihydrofuro[2,3-c]pyridin-5-yl)-2,3-dihydroxypropyl)-4-cyclopropoxy-3-methoxybenzamide] | > 6.70 | < 6.70 | – |
| COc1cc(C(=O)NC[C@](C)(O)c2cc3c(c(-c4ccc(F)c(F)c4)n2)OC[C@@]3(N)C(F)(F)F)ccc1OC1CC1 [Example 22, N—((S)-2-((R)-3-amino-7-(3,4-difluorophenyl)-3-(trifluoromethyl)-2,3-dihydrofuro[2,3-c]pyridin-5-yl)-2-hydroxypropyl)-4-cyclopropoxy-3-methoxybenzamide] | > 6.70 | > 6.70 | – |
